Reference: patent publication US20250352541A1, “THERAPEUTIC FOR CANCER REFRACTORY TO IMMUNE CHECKPOINT INHIBITOR” (Sumitomo Pharma Co., Ltd., priority 2022, published 2025)

What was measured:
CHK1 = CHK1 (Homo sapiens (Human), UniProt O14757); experiment: CHK1 inhibitory activity test (IMAP TR-FRET)
Description: IMAP TR-FRET Screening Express Kit (R8160) was obtained from Molecular Devices. […] FAM-PKAtide (R7255, Molecular Devices) and FAM-Phospho-PKAtide (R7304, Molecular Devices) were admixed after dilution, and calibration standard systems for phosphorylation levels from 0 to 100% were created. 5 μL of a compound dissolved in a 0.4% DMSO solution was added to a 384 well plate. A compound study group to which 5 μL of each of CHK1, CHK1tide, and ATP was added, and a standard group to which 20 μL of standard was added were created, and subjected to a kinase reaction for 3 hours at 30° C. Subsequently, 60 μL of Binding Reagent (80% Buffer A, 20% Buffer B, 1:600 Binding Reagent, 1:400 Tb-Donor) was added for a binding reaction for 2 hours at room temperature.

[1] = system: Human bone marrow CD34 positive hematopoietic stem cells; experiment: Human bone marrow cell colony formation test (hemotoxicological evaluation); type: cell-based; conditions: 100 nM; for Colony count (/well) mean: 48 hours, then about 2 weeks culture
Description: Human bone marrow CD34 positive hematopoietic stem cells were obtained from Lonza K.K. The frozen cells were thawed in a medium prepared by mixing a Methocult Express medium and a 10% fetal bovine serum with 1% penicillin/streptomycin containing RPMI 1640 medium at 9:1. 5000 cells were seeded per well in a 6 well plate and cultured overnight at 37° C. in the presence of 5% CO2. The evaluated compound was added so that the final concentration of DMSO would be 0.1% and 100 nM, and the cells were cultured for 48 hours. The cells were retrieved and washed with PBS. ⅙ of the amount of cells was seeded in a 12 well plate and cultured for about 2 weeks at 37° C. in the presence of 5% CO2. After completion of culture, the number of colonies formed was calculated using Thiazolyl blue tetrazolium bromide (MTT).

[2] = Liposome encapsulation test of Example 1 (Test Example 6a); type: physicochemical
[3] = system: Human bone marrow CD34 positive hematopoietic stem cells; experiment: Human bone marrow cell myeloid lineage differentiation induction test; type: cell-based; conditions: 3 nM
Description: Human bone marrow CD34 positive hematopoietic stem cells were obtained from Lonza K. K. The frozen cells were thawed in a 1% fetal bovine serum containing IMDM medium and suspended in a Complete hemaTox® Myeloid Medium. 1000 cells were seeded per well in a 96-well plate. The evaluated compound was added so that the final concentration of DMSO would be 0.1% and 3 nM, and the cells were cultured for 7 days at 37° C. in the presence of 5% CO2. After completion of culture, half of the amount of cell suspension was retrieved from each well. The luminescence was measured using CellTiter-Glo® 3D Reagent (Promega, G968B) to calculate the cell survival percentage by the following equation.

hERG current = hERG current (Homo sapiens (Human), UniProt Q12809); experiment: hERG current blocking test; conditions: IC50 of hERG divided by IC50 of CHK1 inhibition
Chain of hERG current (Q12809 whole entry): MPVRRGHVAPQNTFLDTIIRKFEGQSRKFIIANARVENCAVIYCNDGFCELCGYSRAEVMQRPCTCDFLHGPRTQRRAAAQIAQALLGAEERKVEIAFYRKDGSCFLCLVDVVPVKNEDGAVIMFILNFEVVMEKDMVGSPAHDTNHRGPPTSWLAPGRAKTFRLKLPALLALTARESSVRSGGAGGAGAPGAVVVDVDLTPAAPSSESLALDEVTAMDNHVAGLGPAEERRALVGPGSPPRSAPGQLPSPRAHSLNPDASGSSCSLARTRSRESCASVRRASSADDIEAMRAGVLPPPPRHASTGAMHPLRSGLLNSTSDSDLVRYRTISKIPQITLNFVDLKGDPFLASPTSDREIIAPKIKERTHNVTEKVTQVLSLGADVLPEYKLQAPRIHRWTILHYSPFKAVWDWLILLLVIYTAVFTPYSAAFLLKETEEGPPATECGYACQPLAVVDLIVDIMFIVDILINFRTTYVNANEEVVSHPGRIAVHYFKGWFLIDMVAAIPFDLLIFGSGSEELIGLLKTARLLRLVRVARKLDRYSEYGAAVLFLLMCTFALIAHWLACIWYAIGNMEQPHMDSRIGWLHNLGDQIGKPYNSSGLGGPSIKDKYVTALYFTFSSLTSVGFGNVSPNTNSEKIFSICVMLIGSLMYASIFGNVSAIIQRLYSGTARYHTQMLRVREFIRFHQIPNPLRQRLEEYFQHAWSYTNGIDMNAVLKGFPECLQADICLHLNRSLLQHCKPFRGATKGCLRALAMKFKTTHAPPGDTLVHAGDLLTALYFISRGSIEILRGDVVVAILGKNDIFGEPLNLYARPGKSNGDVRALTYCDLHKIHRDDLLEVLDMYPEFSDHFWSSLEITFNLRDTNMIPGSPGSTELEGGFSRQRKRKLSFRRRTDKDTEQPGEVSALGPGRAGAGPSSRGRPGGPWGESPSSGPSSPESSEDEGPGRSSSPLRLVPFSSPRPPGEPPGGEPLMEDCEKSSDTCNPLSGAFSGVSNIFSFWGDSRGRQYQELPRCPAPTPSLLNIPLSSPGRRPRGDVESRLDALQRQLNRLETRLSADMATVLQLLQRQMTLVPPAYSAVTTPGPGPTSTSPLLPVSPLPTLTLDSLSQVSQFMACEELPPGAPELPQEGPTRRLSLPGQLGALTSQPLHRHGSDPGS
Description: The test compounds were added to cultured hERG (human Ether-a-go-go Related Gene) gene stably expressing CHO cell line cells to achieve 0.27 to 100 μM.

[4] = Liposome encapsulation test (Test Example 6); type: physicochemical
Description: 6.48 g of hydrogenated soybean phosphatidylcholine (COATSOME NC-21E, NOF Corporation), 2.32 g of cholesterol (Sigma) and 2.06 g of distearoylphosphatidylethanolamine-methoxypolyethylene glycol 2000 (SUNBRIGHT DSPE-020CN, NOF Corporation) were dissolved in 560 mL of t-butyl alcohol heated to 65° C. The solution was frozen with dry ice/acetone bath and t-butyl alcohol was then removed by evaporation under reduced pressure to obtain a lipid mixture.
200 mL of 250 mM ammonium sulfate solution was added to the lipid mixture. The resulting mixture was heated to 65° C. and dispersed with a homogenizer (ULTRA-TURRAX, IKA) to obtain a crude liposome dispersion. […] The prepared amount was increased or decreased appropriately.
2 to 3 mg of the test compound was weighed out. […] An aqueous 1 mol/L hydrochloric acid or 1 mol/L sodium hydroxide solution was added to adjust the pH to 5.5 to 7. […] Insolubles, when present, were removed by centrifugation for 5 minutes at 15,000× g.
The liposome encapsulation ratio was calculated as follows.
100 μL of liposome solution was passed through an ultrafiltration filter (Amicon Ultra, 100K, 0.5 mL, Merck), and centrifuged at 4° C. at 15,000×g for 10 minutes. The concentration of the compound in the filtrate after ultrafiltration was measured by HPLC as the unencapsulated compound concentration.
The liposome solution was diluted with a trifluoroacetic acid/water/methanol mixture (0.1/25/75) and was left standing for 10 minutes or longer at 5° C. The solution was centrifuged for 5 minutes at 15,000× g to remove insolubles. The compound concentration in the supernatant was measured by HPLC as the compound concentration in the liposome solution.
The encapsulation ratio and the encapsulation efficiency were calculated by the following equations.
HPLC measurement conditions are the following.

[5] = system: mouse breast cancer cells EMT6; experiment: Intracytoplasmic ssDNA evaluation test in cells; type: cell-based; conditions: EMT6, 24 hours treatment, versus DMSO
Description: (§1) After 24 hours from seeding of mouse breast cancer cells EMT6 and mouse renal cancer cells Renca, the cells were treated with Example 1 and DMSO and cultured for 24 hours. Thereafter, the cells were collected, and cytoplasmic components were extracted using NE-PER Nuclear and Cytoplasmic Extraction so Reagents (Thermo Fisher Scientific Inc.). After protein quantification and concentration adjustment, ssDNA was quantified using Qbit ssDNA Assay Kit (Thermo Fisher Scientific Inc.).

[6] = system: mouse renal cancer cells Renca; experiment: Intracytoplasmic ssDNA evaluation test in cells; type: cell-based; conditions: 24 hours treatment, versus DMSO
Description: as §1

CYP3A4 = CYP3A4 (Homo sapiens (Human), UniProt P08684); experiment: CYP3A4 MBI and enzyme inactivation clearance evaluation; type: in vitro ADME
Chain of CYP3A4 (P08684 whole entry): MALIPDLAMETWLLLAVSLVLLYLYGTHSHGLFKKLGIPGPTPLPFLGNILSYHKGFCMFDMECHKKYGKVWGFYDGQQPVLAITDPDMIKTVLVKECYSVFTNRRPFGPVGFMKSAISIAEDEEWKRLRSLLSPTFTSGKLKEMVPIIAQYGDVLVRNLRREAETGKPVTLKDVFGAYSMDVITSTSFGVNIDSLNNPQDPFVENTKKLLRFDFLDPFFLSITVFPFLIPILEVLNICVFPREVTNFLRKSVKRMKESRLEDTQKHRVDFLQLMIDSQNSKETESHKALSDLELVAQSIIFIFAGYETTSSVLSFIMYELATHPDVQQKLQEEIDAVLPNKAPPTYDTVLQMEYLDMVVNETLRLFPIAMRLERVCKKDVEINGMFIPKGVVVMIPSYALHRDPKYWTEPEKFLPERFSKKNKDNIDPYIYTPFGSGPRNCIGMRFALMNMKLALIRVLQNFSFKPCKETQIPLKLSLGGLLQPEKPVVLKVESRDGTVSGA
Description: The effect and mode of inhibition of the test compound on CYP3A4 were evaluated using a human liver microsome as an enzyme source and midazolam or testosterone as a substrate. […] The IC50 value was calculated from a concentration plot.

ES-2 cells [7] = experiment: Cell growth suppression experiment; type: cell-based
Description: ES-2 cells were obtained from the American Type Culture Collection (ATCC). These cells were cultured at 37° C. in the presence of 5% CO2 in a 10% fetal bovine serum, 1% penicillin/streptomycin containing McCoy's 5a medium.
500 cells were seeded for each well in a 384-well plate, and the evaluated compound was added so that the final concentration of DMSO would be 0.1% to culture the cells for 2 days. After completion of the culture, the cell viability rate was calculated using CellTiter-Glo® 3D Reagent (Promega, G968B).
The results of cell growth suppression test on representative compounds of the present disclosure are listed in the following table based on the ranking of I, IT, III, IV, and V (1000 nM<I, 1000 nM>TI>300 nM, 300 nM>III>100 nM, 100 nMV>IV>30 nM, 30 nM>V).

neutrophils = conditions: 30 mg/kg, 14 days, 2 times/week, blood 96 hours after the final administration
Description: The test compound was weighed out. An empty liposome solution with a total lipid concentration of 50 mM was added so that the compound concentration would be 2 mg/mL, and 1 mol/L hydrochloric acid was added to adjust the pH to 6 to 7. Alternatively, 10 mM L-histidine buffer/10% sucrose solution (pH 6.5) and hydrochloric acid were added to the test compound to dissolve or disperse the compound, and an empty liposome solution with a total lipid concentration of 75 mM was added so that the compound concentration would be 2 mg/mL, and the pH was adjusted to 6 to 7.
Blood was collected 96 hours after the final administration to measure the neutrophil count.

ES-2 cells [8] = experiment: Concomitantly used drug efficacy evaluation test using tumor-bearing mice transplanted with ES-2 cells (gemcitabine); type: in vivo, BALB/c-nu/nu mice; conditions: Peritoneal, 30 mg/kg, 14 days, 2 times/week
From the text: The test compound was weighed out.

ARK5/NUAK1 = ARK5/NUAK1 (Homo sapiens (Human), UniProt O60285); experiment: Kinase selectivity test (HotSpot Full Panel Kinase profiling); type: biochemical; conditions: ARK5/NUAK1, compound 100 nM, ATP 10 μm; read-out: Residual activity (%)
Chain of ARK5/NUAK1 (O60285 whole entry): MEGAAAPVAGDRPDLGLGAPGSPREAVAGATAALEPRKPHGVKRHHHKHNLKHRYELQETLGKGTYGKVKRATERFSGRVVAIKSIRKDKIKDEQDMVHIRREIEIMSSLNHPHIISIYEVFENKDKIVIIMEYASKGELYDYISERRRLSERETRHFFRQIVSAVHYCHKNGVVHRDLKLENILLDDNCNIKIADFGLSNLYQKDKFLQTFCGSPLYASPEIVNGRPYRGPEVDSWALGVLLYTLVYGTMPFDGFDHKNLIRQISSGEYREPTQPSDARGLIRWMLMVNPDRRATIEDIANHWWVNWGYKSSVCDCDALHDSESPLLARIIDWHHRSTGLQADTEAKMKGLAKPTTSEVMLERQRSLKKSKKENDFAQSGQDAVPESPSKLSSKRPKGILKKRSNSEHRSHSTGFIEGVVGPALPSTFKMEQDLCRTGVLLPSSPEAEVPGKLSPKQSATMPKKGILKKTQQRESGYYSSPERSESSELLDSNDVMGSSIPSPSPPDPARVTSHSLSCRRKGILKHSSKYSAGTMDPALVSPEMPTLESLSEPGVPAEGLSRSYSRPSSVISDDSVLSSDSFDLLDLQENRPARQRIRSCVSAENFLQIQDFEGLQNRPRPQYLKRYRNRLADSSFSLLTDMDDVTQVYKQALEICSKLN

[9] = system: head and neck squamous cell carcinoma; conditions: head and neck squamous cell carcinoma (Non Patent Literature 7); cited from earlier work
[10] = concentration upon compound introduction 2 mg/mL
[11] = concentration upon compound introduction 3 mg/mL

Chain of CHK1 (O14757 whole entry): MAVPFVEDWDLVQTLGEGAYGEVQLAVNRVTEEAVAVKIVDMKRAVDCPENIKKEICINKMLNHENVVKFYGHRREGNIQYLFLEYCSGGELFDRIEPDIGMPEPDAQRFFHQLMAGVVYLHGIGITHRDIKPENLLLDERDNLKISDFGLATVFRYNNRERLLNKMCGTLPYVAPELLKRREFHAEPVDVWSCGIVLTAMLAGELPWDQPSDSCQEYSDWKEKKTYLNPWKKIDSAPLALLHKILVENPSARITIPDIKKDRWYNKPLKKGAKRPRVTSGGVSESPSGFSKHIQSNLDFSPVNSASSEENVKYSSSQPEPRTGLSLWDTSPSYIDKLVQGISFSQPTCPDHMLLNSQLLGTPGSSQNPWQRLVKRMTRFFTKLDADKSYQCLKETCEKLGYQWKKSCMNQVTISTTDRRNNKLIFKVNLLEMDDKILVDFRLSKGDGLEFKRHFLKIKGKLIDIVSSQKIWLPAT

COc1ccnc(OCCCN)c1-c1cc(Nc2cnc(C#N)cn2)n[nH]1 [Example 1, 5-({5-[2-(3-aminopropoxy)-4-methoxypyridin-3-yl]-1H-pyrazol-3-yl}amino)pyrazine-2-carbonitrile]
CHK1 inhibitory activity relative to prexasertib (CHK1): ≥ 5 fold | IC50 (CHK1): < 100 pM | effect of suppressing CHK1 activity compared with prexasertib (CHK1): more potent effect of suppressing CHK1 activity than prexasertib | effect of suppressing human bone marrow cell colony formation [1]: does not exhibit an effect of suppressing human bone marrow colony formation | Colony count (/well) mean [1]: 34 /well | liposome encapsulation efficiency [2]: ≥ 90% | Encapsulation efficiency (%) [2, 10]: 91.3% | Encapsulation efficiency (%) [2, 11]: 91.6% | Encapsulation efficiency (%) ([2]; concentration upon compound introduction 4 mg/mL): 92.2% | effect of suppressing myeloid cells induced to differentiate from human bone marrow cells [3]: does not exhibit an effect of suppressing myeloid cells induced to differentiate from human bone marrow cells | hERG/CHK1 (hERG current): >115000 | encapsulation efficiency [4]: ≥ 80% | Encapsulation efficiency (%) [4, 11]: 87.4% | liquid viscosity during the liposome encapsulation procedure ([4]; pH adjusted by adding 1 mol/L hydrochloric acid): increase in viscosity was not found | increase of ssDNA in cytoplasm [5]: 1.3 times | increase of ssDNA in cytoplasm [6]: 1.5 times | inhibition of CYP3A4 based on MBI (CYP3A4): do not exhibit inhibition of CYP3A4 based on MBI | Factor of change in IC50 value (CYP3A4; human liver microsome, pre-incubation in the presence of NADPH): Not Detected | cell growth suppression effect compared with prexasertib (ES-2 cells [7]): excellent cell growth suppression effect that is equivalent to that of prexasertib

Nc1ccn([C@@H]2O[C@H](CO)[C@@H](O)C2(F)F)c(=O)n1 [Gemcitabine]
Ratio of residual neutrophils (%) (neutrophils): 39% | CR (%) (ES-2 cells [8]): 0% | T/C (%) (ES-2 cells [8]): 9%

COc1cccc(OCCCN)c1-c1cc(Nc2cnc(C#N)cn2)n[nH]1 [Prexasertib, reference compound]
remaining activity at 0.1 µM (ARK5/NUAK1): 17.9% | effect of suppressing human bone marrow cell colony formation [1]: exhibits an effect of suppressing human bone marrow cell colony formation | Colony count (/well) mean [1]: 19 /well | effect of suppressing myeloid cells induced to differentiate from human bone marrow cells [3]: exhibited an effect of suppressing myeloid cells induced to differentiate from human bone marrow cells | Compound concentration in liposome solution [4, 10]: 2160 µg/mL | inhibition of CYP3A4 based on MBI (CYP3A4): exhibits inhibition of CYP3A4 based on MBI

nivolumab
overall response rate [9]: 13.3%
